From patent publication US9242937B2, “Pharmaceutically active disubstituted pyridine derivatives” (Bayer Intellectual Property GmbH, priority 2011, dated 2016)
pIC50: −log10 of the molar value.

Columns and labels:
[1] = target: T1, CDK9 (Homo sapiens, UniProt P50750); experiment: Lance Ultra KinaSelect Assay, CDK9; type: biochemical; conditions: ULight MBP substrate; cyclin partner not stated in Table 5; read-out: CDK9 LANCE assay (activity range), IC50
T1 construct: purchased Invitrogen
Description: (§1) This protocol describes how the Lance Ultra KinaSelect Assay was performed to determine half maximal inhibitory concentration (IC50) of compounds of general formula (I) and CDK/Cyclin complexes. The principle behind this enzymatic assay is based upon the phosphorylation of the ULight-Peptide Substrat. It is detected by using a specific EU-labeled anti-phospho peptide antibody. The binding of the Eu-labeled anti-phospho peptide antibody to the phosphorylated ULight labeled peptide gives rise to a FRET-signal. Binding of an inhibitor to the kinase prevents phosphorylation of the ULight-MBP Substrat, resulting in a loss of FRET.
(§2) The compounds of general formula (I) summarized in Table 5 were diluted from a 10 mM DMSO stock solution 1:10 in a total volume of 15 μL DMSO. This compound predilution was then serial diluted 1:3 over 8 steps in DMSO and briefly spun down. Each compound solution was now diluted 1:20 in Enzymatic Buffer (HEPES: 50 mM, pH: 7.5; MgCl2: 10 mM; EGTA: 1 mM; DTT: 2 mM; Tween-20: 0.01%), mixed thoroughly and spun down. For every sample, 2 μL of the diluted compound were mixed with 6 μL CDK/Cyclin/Substrat solution and 2 μL ATP solution in a well of a small volume 384 well plate (Corning Incorporated, Corning, N.Y., USA; order no. 3673). The CDK/Cyclin was diluted to the appropriate concentration (see Table 3) and the ATP concentration was adjusted to its […] for the CDK/Cyclin, which was 3 μM for CDK2/Cyclin A, 20 μM for CDK1/Cyclin B1, 25 μM for CDK7/Cyclin H and CDK9/Cyclin T1, 55 μM for CDK6/Cyclin D3, 90 μM for CDK4/Cyclin D1 and 125 μM for CDK9/Cyclin K. For negative controls, in each well 2 μL of DMSO solution (1% final DMSO assay concentration) was mixed with 6 μL substrate solution (50 nM ULight MBP final assay concentration) and 2 μL ATP solution (appropriate final concentration see Table 3). For positive controls, in each well 2 μL of DMSO solution (1% final DMSO assay concentration) was mixed with 6 μL CDK/Cyclin/Substrat (appropriate final concentration see Table 3) and 2 μL Tracer ATP solution (appropriate final concentration see Table 3). Positive and negative controls were calculated from at least 8 different sample wells. The 384 well plates were mixed in a Teleshaker plate mixer (Beckman Coulter, Brea, Calif., USA) at 2000 rpm for 40 sec, and incubated for 1 h at room temperature. Before reading, 10 μL the detection buffer (Lance Detection Buffer 1×; EDTA: […]; Eu-Anti-P-MBP: see Table 3) was added. The FRET signal was measured at 340 nm excitation, 665 nm and 615 nm emission (for the kinase tracer and LanthaScreen Eu-AB, respectively) with an Envision spectrophotometer (Perkin Elmer, Waltham, Mass., USA) with 50 μs delay and 300 μs integration time. IC50 values were determined from the sigmoidal dose response curves with the software Quattro Workflow (Quattro GmbH, Munich, Germany).

[2] = test system: MDAMB468 cells; experiment: Cell viability assay, MDAMB468 cells; type: cell-based; conditions: Homo sapiens, MDA-MB-468; 72 h, Cell Titer Glo; read-out: Cell Viability - MDAMB468 cells (activity range), IC50
Description: Hela- or MDAMB468-Cells were maintained in RPMI 1640 or McCoy's 5A cell culture medium+glutamine (PAN Biotech GmbH, Aidenbach, Germany; order no. P04-22100; P04-05500) supplemented with 10% fetal calf serum “Gold” (PAA Laboratories GmbH, Pasching, Austria; order no. A15-151) and grown at 37° C., 5% CO2. For the cell viability assay, cells were seeded with a density of 400 (Hela cells, DSMZ Braunschweig order no. ACC57) or 800 (MDAMB468 cells, ATCC order no. HTB-132) per well in 25 μL in 384-well plates (Greiner Bio-One, Frickenhausen, Germany; order no. 781080). After overnight incubation at 37° C./5% CO2, 25 nL or 75 nL compound were added to each sample well by using BIOMEK FXP Laboratory Automation Workstation (Beckman Coulter, USA). Wells with cells and 0.1% or 0.3% DMSO in culture medium were used as positive controls, wells with cells and 10 μM staurosporine in culture medium were used as negative controls. The cells were incubated with the compounds for 72 h at 37° C./5% CO2. For measurement of cell viability 25 μL Cell Titer Glo reagent (Promega, Madison, USA; order no. G7573), 1:2 diluted with cell culture medium, was added to each well. The 384 well-plates were placed for 2 min on a orbital microplate shaker and incubated for further 10 min at room temperature to stabilize the luminescence signal. Luminescence was measured by Envision Plate Reader (Perkin Elmer, USA). IC50 values were calculated with the software Excel Fit (IDBS, Guildford, UK) from 3-fold dilution series comprising at least 8 concentrations in duplicates.

[3] = target: T2, CDK2/CyclinA (Homo sapiens, UniProt P24941); experiment: Lance Ultra KinaSelect Assay, CDK2; type: biochemical; conditions: ULight MBP substrate, ATP 3 μM; read-out: CDK2 LANCE assay (activity range), IC50
T2 construct: purchased Proqinase
Description: as §1, §2

[4] = target: T3, CDK7/CyclinH/MAT1 (Homo sapiens, UniProt P50613); experiment: Lance Ultra KinaSelect Assay, CDK7; type: biochemical; conditions: ULight MBP substrate, ATP 25 μM; read-out: CDK7 LANCE assay (activity range), IC50
T3 construct: purchased Carna Biosciences
T3 sequence (P50613 whole entry): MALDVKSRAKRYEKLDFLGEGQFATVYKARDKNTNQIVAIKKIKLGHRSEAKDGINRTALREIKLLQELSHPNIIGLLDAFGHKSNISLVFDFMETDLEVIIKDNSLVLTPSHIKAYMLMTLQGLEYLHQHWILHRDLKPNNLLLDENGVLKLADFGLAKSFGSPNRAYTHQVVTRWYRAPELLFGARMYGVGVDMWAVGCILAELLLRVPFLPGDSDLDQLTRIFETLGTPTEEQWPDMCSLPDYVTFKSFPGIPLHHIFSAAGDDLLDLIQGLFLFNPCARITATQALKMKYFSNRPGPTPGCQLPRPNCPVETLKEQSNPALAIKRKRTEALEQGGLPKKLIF
T3 sequence (P51946 whole entry partner): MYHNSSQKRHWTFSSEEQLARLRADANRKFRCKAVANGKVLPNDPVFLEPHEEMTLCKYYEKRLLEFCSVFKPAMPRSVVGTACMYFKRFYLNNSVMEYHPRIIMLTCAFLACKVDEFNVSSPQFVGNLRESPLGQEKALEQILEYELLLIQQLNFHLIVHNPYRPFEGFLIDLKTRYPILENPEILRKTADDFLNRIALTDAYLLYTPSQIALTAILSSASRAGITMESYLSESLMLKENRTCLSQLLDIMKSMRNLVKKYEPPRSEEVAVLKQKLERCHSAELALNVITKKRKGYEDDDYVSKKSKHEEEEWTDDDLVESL
T3 sequence (P51948 whole entry partner): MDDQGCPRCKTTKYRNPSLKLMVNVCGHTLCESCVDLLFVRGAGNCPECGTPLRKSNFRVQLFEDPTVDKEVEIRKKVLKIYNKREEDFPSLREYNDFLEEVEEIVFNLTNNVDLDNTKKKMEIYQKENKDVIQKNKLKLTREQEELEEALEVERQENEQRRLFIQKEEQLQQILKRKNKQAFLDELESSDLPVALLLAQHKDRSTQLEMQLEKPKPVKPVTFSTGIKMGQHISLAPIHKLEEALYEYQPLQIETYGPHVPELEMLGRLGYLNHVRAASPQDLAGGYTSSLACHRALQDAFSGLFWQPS
Description: as §1, §2

T1 sequence (P50750 whole entry): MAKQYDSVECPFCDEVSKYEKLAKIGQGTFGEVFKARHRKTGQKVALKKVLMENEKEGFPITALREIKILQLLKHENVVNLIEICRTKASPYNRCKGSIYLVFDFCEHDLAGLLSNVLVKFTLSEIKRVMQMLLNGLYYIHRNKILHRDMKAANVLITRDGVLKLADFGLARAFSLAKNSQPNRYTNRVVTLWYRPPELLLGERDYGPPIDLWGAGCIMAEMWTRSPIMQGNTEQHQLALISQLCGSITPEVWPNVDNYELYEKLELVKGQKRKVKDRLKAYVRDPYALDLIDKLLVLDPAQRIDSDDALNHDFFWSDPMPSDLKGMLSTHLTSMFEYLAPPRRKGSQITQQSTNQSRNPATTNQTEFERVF

| pIC50 [1] | pIC50 [2] | pIC50 [3] | pIC50 [4] | Structure (SMILES) |
| --- | --- | --- | --- | --- |
| 5.00 to 6.00 | < 5.00 | – | – | COc1ccccc1-c1ccnc(Nc2ccccc2)c1 [Compound B1, 4-(2-Methoxyphenyl)-N-phenylpyridin-2-amine] |
| > 7.00 | 5.00 to 6.00 | 5.00 to 6.00 | < 5.00 | COc1cc(F)ccc1-c1ccnc(Nc2cccc(CS(=O)(=O)N(C)C)c2)c1 [Compound G3, 1-[3-((4-(4-Fluoro-2-methoxyphenyl)pyridin-2-yl)amino)phenyl]-N,N-dimethylmethanesulfonamide] |
| > 7.00 | 5.00 to 6.00 | 6.00 to 7.00 | < 5.00 | COc1cc(F)ccc1-c1ccnc(Nc2cccc(NS(C)(=O)=O)c2)c1 [Compound J1, N-[3-((4-(4-Fluoro-2-methoxyphenyl)pyridin-2-yl)amino)phenyl]-methanesulfonamide] |
| > 7.00 | 5.00 to 6.00 | 5.00 to 6.00 | < 5.00 | COc1cc(F)ccc1-c1ccnc(Nc2cccc(CS(N)(=O)=O)c2)c1 [Compound G1, [3-((4-(4-Fluoro-2-methoxyphenyl)pyridin-2-yl)amino)phenyl]-methanesulfonamide] |
| > 7.00 | 6.00 to 7.00 | 6.00 to 7.00 | < 5.00 | COc1ccccc1-c1ccnc(Nc2cccc(S(N)(=O)=O)c2)c1 [Compound D1, 3-[(4-(2-Methoxyphenyl)pyridin-2-yl)amino]benzenesulfonamide] |
| 5.00 to 6.00 | < 5.00 | – | – | COc1ccccc1-c1ccnc(Nc2cccc([N+](=O)[O-])c2)c1 [Compound C1, 4-(2-Methoxyphenyl)-N-(3-nitrophenyl)pyridin-2-amine] |
| > 7.00 | 5.00 to 6.00 | 6.00 to 7.00 | < 5.00 | COc1cc(F)ccc1-c1ccnc(Nc2cccc(NC(C)=O)c2)c1 [Compound J2, N-[3-((4-(4-Fluoro-2-methoxyphenyl)pyridin-2-yl)amino)phenyl]-acetamide] |
| 6.00 to 7.00 | < 5.00 | 5.00 to 6.00 | < 5.00 | CCCNS(=O)(=O)Cc1cccc(Nc2cc(-c3ccc(F)cc3OC)ccn2)c1 [Compound K1, 1-[3-((4-(4-Fluoro-2-methoxyphenyl)pyridin-2-yl)amino)phenyl]-N-propylmethanesulfonamide] |
| > 7.00 | 5.00 to 6.00 | – | – | COc1ccccc1-c1ccnc(Nc2cccc(S(C)(=O)=O)c2)c1 [Compound F1, 4-(2-Methoxyphenyl)-N-(3-(methylsulfonyl)phenyl)pyridin-2-amine] |
| 6.00 to 7.00 | 5.00 to 6.00 | > 7.00 | < 5.00 | COc1ccccc1-c1ccnc(Nc2ccc(S(N)(=O)=O)cc2)c1 [Compound E1, 4-[(4-(2-Methoxyphenyl)pyridin-2-yl)amino]benzenesulfonamide] |
